Experiments:
in vitro = conditions: African green monkey, CC50, 4-day test, mock infected Vero E6 cells
Vero E6 cells = conditions: 4-day test, mock infected Vero E6 cells
Pneumocystis = conditions: mice; Bartlett et al. 1991; cited from earlier work
Babesia = conditions: mice; single doses for tafenoquine; cited from earlier work
[1] = test system: total anti SARS-CoV-2 spike protein antibody; type: in vivo, human
[2] = doses of up to 1200 mg over three days; Green et al 2014; cited from earlier work
[3] = test system: blood stages of P. falciparum; conditions: Baird et al. 2002; McCarthy et al. 2019; cited from earlier work
COVID-19 disease [4] = conditions: mild-moderate COVID-19; exploratory analyses; P<0.02; Dow and Smith 2022; cited from earlier work
SARS-CoV-2 [5] = type: cell-based; conditions: calculated relative to the CC50 for the 4-day test
[6] = test system: Monocyte chemotactic protein 1 (MCP-1); type: in vivo, human
COVID-19 disease [7] = test: Phase II clinical trial, time to clinical recovery in mild-moderate COVID-19; type: in vivo, human
Description: Laboratory endpoint and patient-level individual symptom data were collected in that study, have not been reported elsewhere, and form the basis for surprising findings about the therapeutic and mechanistic effects of tafenoquine described herein.
Longitudinal aggregate symptom data for individual patients from Dow and Smith (2022) were examined to determine the number of days required before each patients reported an aggregate symptom score of 2 for four days of more for the first time. This endpoint was not included as a pre-specified analysis in the original study design, and was only recently confirmed to be an endpoint of interest to regulars in mild-moderate COVID-19 disease in standard risk patients. […] A survival curve was generated, and data were analyzed using Graphpad Prism. […] At Day 28, which was the last day of the study, the proportion of patients with persistent COVID-19 symptoms was lower in the tafenoquine arm.

[8] = in vivo; cited from earlier work
SARS-CoV-2 [9] = test: Nasopharyngeal viral load change from baseline, regression analysis; type: in vivo, human; conditions: Log10 viral copy number/ml; baseline through Day 5; P 0.8650
Procedure: NP swabs were collected at Baseline and Day 5 and Log10 viral copy number/ml was determined utilizing the standard commercially available assay from Eurofins. Only samples from patients where valid baseline and Day 5 results were obtained were analyzed. Samples with values below the dynamic range of the assay were assigned a value equivalent to the detection limit. Samples with […] were assigned a value equivalent to half the detection limit. Viremia change from baseline was calculated by subtracting log 10 Day 5 copy number from the log 10 baseline copy number. Log10 Baseline and change from baseline values were used in the analyses.
Multivariate regression analysis (performed utilizing the standard built-in program in Graphpad Prism 9.3.1) was used to analyze the following dependent variables: Change in NP viral load from baseline through Day 5 (Regression 1) and total anti SARS-CoV-2 antibody change from baseline through Day 14 (Regression 2). The dependent variable data were tested to ensure that they passed at least three of four tests of normality (Anderson-Darling, D'Agostino-Pearson, Shapiro-Wilk and Kolmogorov-Smirnov tests) according to the standard built-in programs in GraphPad. The same independent variables described in Example 6 were utilized. […]

[10] = predicted Day 5 values, all group comparisons vs placebo, independent of vaccination or baseline MCP-1

CCN(CCO)CCCC(C)Nc1ccnc2cc(Cl)ccc12 (centres unmarked) [Hydroxychloroquine]
CC50 (in vitro): ~55 µM
CC50 (Vero E6 cells): 67 µM

COc1cc(NC(C)CCCN)c2ncccc2c1 (centres unmarked) [Primaquine]
cure of Pneumocystis infections (Pneumocystis): must be combined with clindamycin
dose that cleared Babesia parasitemia (Babesia): 100 mg/kg

COc1cc(C)c2c(Oc3cccc(C(F)(F)F)c3)c(OC)cc(NC(C)CCCN)c2n1 (centres unmarked) [Tafenoquine]
effect on total anti-SARS-CoV-2 antibody generation ([1]; P=0.546 as printed): did not affect
Regression 2: Antibodies CFB (unvaccinated), Beta for Treatment ([1]; in vivo): −0.671/
effect on upper limit of 90% confidence interval of the QTC interval [2]: not found to increase
activity against the blood stages of P. falciparum [3]: quite effective
recovery from fever, cough and shortness of breath (COVID-19 disease [4]): accelerate recovery
selectivity index (SARS-CoV-2 [5]): 14.3
Regression 1: MCP1 Day 5 CFB (Multivariate), Beta for Treatment (TQ = 1, PL = 0) ([6]; Day 5 value − Baseline value, P 0.0093): −74.4/
Regression 2: MCP1 Day 14 CFB for high baseline MCP1, Beta for Treatment ([6]; baseline MCP-1 exceeding 350 units/ml, P 0.3304): 78.9/
Regression 3: MCP1 Day 14 CFB for low baseline MCP1, Beta for Treatment ([6]; baseline MCP-1 less than 350 units/ml, P 0.2356): −35.0/
Regression: MCP1 Day 14 CFB (rank-transformed), Beta for Treatment ([6]; human, in vivo): 0.584//
reduction in Day 5 MCP-1 (absolute) [6, 10]: at least 41
reduction in Day 5 MCP-1 (percent) [6, 10]: ≥ 10%
Regression 1: MCP1 Day 5 (Univariate), Beta for Treatment ([6]; univariate, P 0.2548): −45.2/
median time to clinical recovery (COVID-19 disease [7]; COVID-19 patients, 200 mg on Days 1, 2, 3 and 10, sustained recovery for four days or more, placebo 16 days): 13 days
proportion of patients with persistent COVID-19 symptoms at Day 28 (COVID-19 disease [7]; tafenoquine arm vs placebo, Day 28): lower
cure of Pneumocystis infections (Pneumocystis): can be administered as monotherapy to cure
dose that cleared Babesia parasitemia (Babesia): 20 mg/kg
half-life [8]: 14 days
Regression 1: NP Viral Load CFB, Beta for Treatment (TQ = 1, PL = 0) (SARS-CoV-2 [9]): −0.0735/

Source: patent publication US20240165099A1, “METHODS FOR THE TREATMENT AND PREVENTION OF DISEASES OR INFECTIONS WITH MCP-1 INVOLVEMENT BY ADMINISTRATION OF TAFENOQUINE” (60 DEGREES PHARMACEUTICALS LLC, priority 2022, published 2024)
